These results are taken from ChEMBL document CHEMBL3727350, “Agents and methods for treating ischemic and other diseases” (2014).

Active and inactive are the calls of the source. The calls are words filed in the database; no cut-off is given here.

For the first test, the target named is Transient receptor potential cation channel subfamily M member 7 (Mus musculus) (UniProt Q923J1). Kind of test: Inhibition of Tet-induced Flag-tagged mouse TRPM7 expressed in HEK293 cells assessed as inhibition of channel-mediated cell death in presence of Mg2+ incubated for 24 to 48 hrs by propidium iodide uptake assay. Details: concentration or dose not given beside the values.
Sequence of Transient receptor potential cation channel subfamily M member 7 (Mus musculus) (Q923J1 whole entry): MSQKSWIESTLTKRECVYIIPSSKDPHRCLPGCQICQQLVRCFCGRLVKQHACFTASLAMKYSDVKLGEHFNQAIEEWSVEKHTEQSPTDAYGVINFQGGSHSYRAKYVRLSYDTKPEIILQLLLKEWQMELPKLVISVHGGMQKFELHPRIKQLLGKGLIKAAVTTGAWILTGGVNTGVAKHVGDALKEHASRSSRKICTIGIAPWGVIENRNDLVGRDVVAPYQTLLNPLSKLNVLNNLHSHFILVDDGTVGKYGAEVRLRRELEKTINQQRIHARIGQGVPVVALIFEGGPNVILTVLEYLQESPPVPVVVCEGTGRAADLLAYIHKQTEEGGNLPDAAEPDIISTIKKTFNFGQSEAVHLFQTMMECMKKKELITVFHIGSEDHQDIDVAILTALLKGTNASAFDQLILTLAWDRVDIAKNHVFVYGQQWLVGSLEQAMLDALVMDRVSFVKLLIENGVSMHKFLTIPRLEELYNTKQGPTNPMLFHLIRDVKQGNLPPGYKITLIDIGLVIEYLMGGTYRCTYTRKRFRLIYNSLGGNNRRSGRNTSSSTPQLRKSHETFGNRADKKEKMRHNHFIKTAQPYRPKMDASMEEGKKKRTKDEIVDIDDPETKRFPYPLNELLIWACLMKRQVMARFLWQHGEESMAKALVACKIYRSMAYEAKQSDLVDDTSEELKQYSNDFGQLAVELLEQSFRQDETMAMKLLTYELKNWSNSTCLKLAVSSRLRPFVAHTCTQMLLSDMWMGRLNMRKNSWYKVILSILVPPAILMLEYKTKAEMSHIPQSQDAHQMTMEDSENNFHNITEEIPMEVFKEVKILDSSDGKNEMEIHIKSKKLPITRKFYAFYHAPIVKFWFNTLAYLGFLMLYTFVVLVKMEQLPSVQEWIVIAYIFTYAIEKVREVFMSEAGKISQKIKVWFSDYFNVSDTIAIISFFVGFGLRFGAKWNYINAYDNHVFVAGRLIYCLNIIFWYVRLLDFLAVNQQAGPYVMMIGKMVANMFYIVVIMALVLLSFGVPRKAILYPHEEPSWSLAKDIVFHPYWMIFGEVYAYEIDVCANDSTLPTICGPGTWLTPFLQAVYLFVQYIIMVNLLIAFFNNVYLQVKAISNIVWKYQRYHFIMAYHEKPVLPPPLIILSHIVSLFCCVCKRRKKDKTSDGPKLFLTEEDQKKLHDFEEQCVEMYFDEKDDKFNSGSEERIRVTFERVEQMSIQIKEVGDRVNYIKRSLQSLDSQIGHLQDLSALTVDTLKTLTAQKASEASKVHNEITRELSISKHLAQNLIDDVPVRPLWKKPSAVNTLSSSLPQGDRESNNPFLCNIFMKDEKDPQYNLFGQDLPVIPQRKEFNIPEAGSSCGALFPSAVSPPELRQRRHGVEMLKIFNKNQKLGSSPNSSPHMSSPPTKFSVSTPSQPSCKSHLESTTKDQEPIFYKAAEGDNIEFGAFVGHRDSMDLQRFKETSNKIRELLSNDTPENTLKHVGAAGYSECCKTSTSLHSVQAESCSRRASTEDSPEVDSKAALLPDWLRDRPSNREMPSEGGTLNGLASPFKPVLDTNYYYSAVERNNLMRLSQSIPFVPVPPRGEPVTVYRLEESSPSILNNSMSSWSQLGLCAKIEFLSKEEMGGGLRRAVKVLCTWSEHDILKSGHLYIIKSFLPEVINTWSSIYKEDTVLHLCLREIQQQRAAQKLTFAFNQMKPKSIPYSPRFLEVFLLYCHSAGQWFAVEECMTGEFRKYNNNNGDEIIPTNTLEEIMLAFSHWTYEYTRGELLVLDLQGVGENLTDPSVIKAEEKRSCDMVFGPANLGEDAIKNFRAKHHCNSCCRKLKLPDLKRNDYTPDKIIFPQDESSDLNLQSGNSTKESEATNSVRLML
Settings: not given
Type of test: cell-based.
By inhibition is commonly meant the drop in the measured response relative to a control, in per cent. Consider `C[C@H]1O[C@@H](O[C@H]2[C@@H](O)C[C@H](O[C@H]3[C@@H](O)C[C@H](O[C@H]4CC[C@@]5(C)[C@H](CC[C@@H]6[C@@H]5C[C@@H](O)[C@]5(C)[C@@H](C7=CC(=O)OC7)CC[C@]65O)C4)O[C@@H]3C)O[C@@H]2C)C[C@H](O)[C@@H]1O`, for which the inhibition result is “Dose-dependent effect”. Take `Cc1ccc(NS(=O)(=O)c2ccc(-c3csc(C)n3)s2)c(C)c1`: the inhibition entry is “Active”.

Staying with this test, now noted: concentration not given here.
For the compound `COc1cccc(NC(=O)Nc2nnc(C3CC3)s2)c1`, the inhibition is less than 30%.

In the case of `CC(C)(C)c1ccc(NC(=O)/C=C/C(=O)O)cc1`, the inhibition was less than 30%.

Consider `CCOC(=O)C(=CNNC(=O)c1cccs1)C(=O)OCC`, for which the inhibition was determined as 60%. On the same count and under the same terms, under `N#C/C(=N\Nc1ccc(Cl)c(Cl)c1)C(=O)C1CC1` stands 40%. Same read-out and setting: the same measure for `O=C(N/C=C/c1cccs1)Nc1ccc(Cl)cc1`: less than 30%; for `CC12CCC(C(=O)N3CCSCC3)(OC1=O)C2(C)C` (configuration not stated): less than 30%.

For the compound `COc1ccc(NC(=O)CSc2nnc(C)n2-c2ccc(OCc3ccccc3)cc2)cc1`, the inhibition was found to be 50%.

On to `Cc1c(C)c(C)c(CO/N=C/c2cccs2)c(C)c1C`, for which the inhibition came to 70%.

`Cc1ccc(S(=O)(=O)Nc2ccc(C)cc2NS(=O)(=O)c2ccc(Cl)cc2)cc1`: the inhibition stood at 40%. On the same count and under the same terms, the same measure for `CCOC(=O)C1=C(C)NC(=O)NC1c1cccc2ccccc12` (configuration not stated): less than 30%; for `O=C1NC(=S)S/C1=C/c1ccc(Cl)cc1Cl`: 40%; for `CCOC(=O)c1c(-n2c(C)ccc2C)sc2c1CCCC2`: 70%. Regarding `COC(=O)/C(=C/N(C)C)NC(=O)c1ccccc1`, the inhibition was less than 30%.

`OC1(C(F)(F)F)CC(c2cccs2)=NO1` (configuration not stated): the inhibition turned out to be 30%. The same measure, in the same setting: under `O=[N+]([O-])c1ccc(Nc2cccc(F)c2)c2nonc12` stands 40%; under `O=[N+]([O-])c1ccc(-n2ncc(-c3nc(-c4ccc(Cl)cc4)no3)c2C(F)(F)F)cc1`, less than 30%; under `Cc1c(-c2nc(-c3ccc([N+](=O)[O-])o3)no2)n(C)oc1=O`, less than 30%. For `Cc1c(C)c(C)c(CN2CCOC(c3ccccc3)C2C)c(C)c1C` (configuration not stated), the inhibition is less than 30%. `CSc1nc2c(c(/C=C/c3ccccc3)c1C#N)CCC2`: the inhibition is less than 30%. Regarding `Cc1ccc(OC/C(N)=N/OC(=O)c2cc(C)on2)cc1`, the inhibition was less than 30%.

Take `CC(=O)C(C#N)c1nc(-c2ccc(Cl)c(C)c2)cs1` (configuration not stated): the inhibition stood at 70%. For `C=C(C(=O)OC)C(O)c1ccc(Br)cc1` (configuration not stated), the inhibition is 60%.

Take `Cc1onc(-c2ccccc2)c1-c1cnn(S(=O)(=O)c2ccc(Cl)cc2)c1`: the inhibition came to 30%. Consider `O=C(Nc1ccc(N2CCC(C(F)(F)F)CC2)nc1)c1ccc(OC(F)(F)F)cc1`, for which the inhibition is less than 30%.

In the case of `O=C(CSc1ssc(=S)c1-c1ccccc1)Nc1ccc(Cl)cc1`, the inhibition is less than 30%.

`O=C1/C(=C\c2cccs2)C(c2ccccc2)Oc2ccccc21` (configuration not stated): the inhibition was less than 30%. Consider `NNC(=O)CSc1ccccc1[N+](=O)[O-]`, for which the inhibition came out at 40%.

Regarding `OC(COc1ccc(F)cc1)CN1CCN(Cc2c(F)cccc2Cl)CC1` (configuration not stated), the inhibition was 30%. Same read-out and setting: the same measure for `COc1ccc(CCNC(=O)c2sc3ccccc3c2Cl)cc1OC`: less than 30%; for `O=C(CCSCc1ccc(Cl)cc1)Nc1ccc(Cl)cc1`: 60%. Consider `O=C(NNC(=S)Nc1cc(Cl)ccc1Cl)C(O)(c1ccccc1)c1ccccc1`, for which the inhibition came to 50%. The same measure, in the same setting: under `O=C(O)CNC(=O)c1cccs1` stands less than 30%; under `CS/C(=N/C(C)(C)C)Nc1ccccc1Cl`, less than 30%. As for `O=C(NNC(=S)Nc1cc(Cl)ccc1Cl)c1ccccc1Cl`, the inhibition was less than 30%.

As for `CCCCCNC(=S)NNC(=O)OCC`, the inhibition came to 60%. For `COC(=O)c1scc(S(=O)(=O)C(C)C)c1N/N=C(\C#N)C(=O)c1ccccc1`, the inhibition was less than 30%. On the same count and under the same terms, the same measure for `COc1ccc2c(c1)CCC1SC(NC(=O)c3ccco3)=NC21` (configuration not stated): less than 30%; for `O=S(=O)(NCc1cccs1)c1ccc(Sc2ncc(C(F)(F)F)cc2Cl)s1`: less than 30%; for `Cc1ccc(C(=O)Nc2ccc3c(c2)CS(=O)(=O)C3)cc1`: less than 30%. Take `O=[N+]([O-])c1cccc(-c2ccc(/C=N/NC(=S)Nc3cccc(F)c3)o2)c1`: the inhibition was determined as 30%.

As to `COc1cc2c(cc1OC)C(c1cccc(C)c1)N(C(=O)c1sc3ccccc3c1Cl)CC2` (configuration not stated), the inhibition was 40%. Consider `CCCSC(=S)c1c(C)nn(-c2ccc(C)cc2)c1O`, for which the inhibition was 50%. Same read-out and setting: the same measure for `CC(C)N(Cc1ccc(N(C)C)cc1)C(=O)c1sc2ccccc2c1Cl`: 50%; for `c1ccc2c(CN3CCN(Cc4ccc5c(c4)OCO5)CC3)c[nH]c2c1`: 60%; for `Cc1ccc(NC(=O)c2cccc3c2-c2ccccc2C3)cc1`: less than 30%. With `CC(=O)Nc1ccc(S(=O)(=O)Nc2ccccc2C#N)cc1`, the inhibition was less than 30%. On to `CSc1scc2c1-c1n[nH]cc1CC2`, for which the inhibition is less than 30%. With `C=CC/N=C1/NC(=O)C(CC(=O)Nc2ccc(Cl)cc2)S1` (configuration not stated), the inhibition stood at 50%.

On to `COC(=O)C1=CNC(CC(CC=O)c2ccc(F)cc2)=CC1c1ccc(N(C)C)cc1Cl` (configuration not stated), for which the inhibition was less than 30%. Regarding `Cc1onc(-c2ccccc2Cl)c1C(=O)Nc1cccc2cccnc12`, the inhibition is 60%.

As for `FC(F)(F)c1ccc(C2c3ccsc3CCN2C(=S)Nc2ccc(Cl)cc2Cl)cc1` (configuration not stated), the inhibition worked out at 70%.

For the compound `Cc1ccc(-c2nc(NC(=O)Nc3ccccc3)sc2C)cc1Cl`, the inhibition was less than 30%. For the compound `NC(=O)c1sc(-c2ccc(Cl)cc2)cc1NS(=O)(=O)c1ccc(Cl)cc1`, the inhibition is 50%.

Turning to `Cc1onc(-c2c(Cl)cccc2Cl)c1/C=C1/C(=O)Nc2ccccc21`, the inhibition is 30%.

Turning to `CC(C)(C)NC(=O)CSc1nnc([C@H](Cc2ccccc2)NC(=O)OC(C)(C)C)o1`, the inhibition is 30%. Take `O=C(Nc1ccc(F)c(Cl)c1)c1ccccc1O`: the inhibition was less than 30%. Same read-out and setting: under `N#Cc1ccc(NC(=O)Nc2ccc(OCc3ccccc3)cc2)cc1` stands 80%.

Take `NCCCNc1ccc2c3c(nn2CCNCCO)-c2c(O)ccc(O)c2C(=O)c13`: the inhibition worked out at 80%.

For the compound `CCCCCCCSc1nnc[nH]1`, the inhibition was 70%.

With `C#CCSc1nc(-c2ccc(C(F)(F)F)cc2)nc(C)c1C(C)=O`, the inhibition is less than 30%. The same measure, in the same setting: under `CC1(C)CC(=O)c2c(SCCOC(=O)Nc3cccc(Cl)c3)sc(C#N)c2C1` stands less than 30%; under `CCCC1c2ccsc2CCN1C(=S)Nc1ccc(Cl)cc1Cl` (configuration not stated), 40%; under `COc1ccc2c(c1)CC/C(=C\c1ccc(Cl)cc1Cl)C2=O`, 60%. Still for that read-out and setting: under `Cc1ccc(C(=O)/C=C/C(=O)O)c(C)c1F` stands 60%. Turning to `Cc1nc(N/C=N/O)c(Br)cc1Br`, the inhibition was determined as 30%.

As to `Cc1cc(NS(=O)(=O)c2cccs2)[nH]n1`, the inhibition is less than 30%. As for `O=C(Oc1ccccc1)c1csc(C2COc3ccccc3O2)n1` (configuration not stated), the inhibition was less than 30%. As for `N#CC1=C(N)Oc2c3c(c4ccccc4c2C1c1ccc(C(F)(F)F)cc1)C(c1ccc(C(F)(F)F)cc1)C(C#N)=C(N)O3` (configuration not stated), the inhibition was less than 30%. Same read-out and setting: under `FC(F)(F)c1cc(Oc2ccc(Cl)cc2)ccc1-c1ncc(-c2cccc(Cl)c2)o1` stands 70%. As for `CC(C)(C)c1ccc(-c2noc(-c3ccc4c(c3)CCO4)n2)cc1`, the inhibition is 60%.

As to `Cc1ccc2c(c1)CCCN2C(=S)Nc1cccc(Cl)c1`, the inhibition was less than 30%. In the case of `Cc1cc(OCc2c(C)c(C)c(C)c(C)c2C)c2c(Cl)ccc(C)c2n1`, the inhibition came to 40%.

Turning to `N#CC(C#N)=CNc1cc(C(F)(F)F)ccc1N1CCc2ccccc2C1`, the inhibition came to 50%. As for `O=c1oc2cc(O)ccc2c(O)c1Cc1ccc(Cl)c(Cl)c1`, the inhibition is 80%. `CSc1sc(Br)c2c1C(=O)CCC2`: the inhibition was less than 30%. Take `O=C(Nc1ccc(OC(F)(F)F)cc1)Nc1cc(-c2ccccc2)n[nH]1`: the inhibition was less than 30%. For the compound `Cc1cc(C(=O)Nc2ccc(C(C)(C)C)cc2)nn1Cc1c(Cl)cccc1Cl`, the inhibition was 70%. As for `Clc1cccc2nnsc12`, the inhibition is 30%. Take `O=S(=O)(CS(=O)(=O)Oc1ccc(Cl)cc1Cl)Oc1ccc(Cl)cc1Cl`: the inhibition was less than 30%. On to `FC(F)(F)COc1ccc(-c2nc(-c3ccc(Cl)cc3)cs2)cn1`, for which the inhibition was 50%.

As for `COc1ccc(S(=O)(=O)N2CCC(O)(c3ccc(Cl)cc3)CC2)cc1OC`, the inhibition is 40%.

As for `O=C(Nc1cccc([N+](=O)[O-])c1)c1ccccc1O`, the inhibition is 60%. `CCOC(=O)C(Nc1ccccc1)C(=O)OCC`: the inhibition is 30%. Consider `CCCCCc1c(COC)c2ccc(O)cc2oc1=O`, for which the inhibition was 50%. As for `Cc1ccc(S(=O)(=O)Nc2ccccc2Oc2ccccc2)cc1`, the inhibition is less than 30%. Turning to `CC(=O)CC(O)c1ccncc1` (configuration not stated), the inhibition was less than 30%. On the same count and under the same terms, under `Fc1ccc(C2CN3C(=N2)C=Cc2ccccc23)cc1` (configuration not stated) stands less than 30%; under `CSC1=N/C(=C\c2ccccc2O)C(=O)N1Cc1ccco1`, less than 30%; under `C/C(=N\Nc1c(C)cccc1Cl)c1ccc(Oc2ncc([N+](=O)[O-])s2)cc1`, less than 30%. On the same count and under the same terms, the same measure for `CC(=O)Nc1ccc(S(=O)(=O)Nc2ccccc2Oc2ccc(Cl)cc2Cl)cc1`: 80%; for `Cc1cc2c(cc1C)CSC(C)(c1ccc(F)cc1)SC2`: less than 30%; for `CO[C@@H]1O[C@@H]2CO[C@H](COC(C)=O)[C@]3(OC(C)=O)CO[C@H](OC2[C@H](OC(C)=O)[C@H]1OC(C)=O)[C@@H](OC(C)=O)[C@@H]3OC(C)=O` (some centres not stated): 40%.

In the case of `Cc1ccc(NC(=O)c2c(-c3ccccc3Cl)noc2C)cc1F`, the inhibition was less than 30%. The same measure, in the same setting: under `CCOC(=O)c1c(C)n(-c2ccccc2)c2ccc(OC(=O)C(c3ccccc3)C3CCCC3)cc12` (configuration not stated) stands 30%; under `CN(C)c1cc(-c2cc(Cl)sc2Cl)oc(=O)c1Cl`, less than 30%.
